Columns and labels:
[1] = Acute effect on tear fluid secretion (tearing rate, phenol red thread) in naive rats; format: in vivo, Sprague-Dawley rats
Protocol: Sprague-Dawley rats (males, around 200 g) were purchased from Charles River and adapted one week before processing the experiment. Two-three rats per cage were housed in a controlled environment of 12 hours intervals of light/dark cycles and free access to food and water. Animal experiments were approved by the Animal Care and Use Committee of the University of Barcelona (CEEA) and the […] de Territori i Sostenibilitat of Generalitat de Catalunya, Catalonia, Spain (319/19; 10935) and followed the ethical guidelines of the International Association for the Study of Pain. […] (also named Nter 13 peptide or […] NO: 2)) and scramble ([…] NO: 7)) peptides were purchased from GenScript Biotech (Leiden, Netherlands) and provided by CNRS. Both peptides were dissolved in Phosphate Buffered Saline (PBS) at 10 mM and used for topical ocular application (5 ul per eye). Tear fluid secretion (tearing rate) was measured using phenol red threads (Zone-Quick, Menicon, Nagoya, Japan) placed on the lower eyelid for 30 s without topical anesthesia (Trost, 2007; Acosta 2013). Tearing rate was determined with an accuracy of ±0.5 mm by measurement of the length of the red portion of the thread. After habituation of the animals, basal tearing rate was measured in both eyes before any topical application of peptides. Then, animals were divided in different groups and a solution containing vehicle (PBS), amiloride (1 mM), peptide N13 or peptide scramble was topically applied to the ocular surface (5 μl) and tearing rate was measured at 1, 3, 6, 12 and 24 h. Tearing rate measurements were done blind to the treatment received by the animals. Data are presented as mean±standard error of the mean (SEM). Statistical differences between different sets of data were assessed by performing repeated measured One-way ANOVA plus Bonferroni's post-tests (each data point in an experimental group vs. basal values) or repeated measured Two-way ANOVA plus Bonferroni's post-tests (each data point in […] group vs. Scramble or Vehicle group; or point in […] or amiloride groups vs. Vehicle group) using Prism 9 (GraphPad Software, San Diego, CA). The significance level was set at p<0.05 in all statistical analyses.

TMEM16A [2] = molecular target: T1, TMEM16A (Mus musculus, UniProt Q8BHY3); assay: Whole-cell patch-clamp of HEK293T cells expressing TMEM16A; format: cell-based; conditions: for inhibition of KCNE1-TMEM16A chloride current: HEK293T co-expressing TMEM16A and KCNE1; for effect of peptide application on TMEM16A current: HEK293T cells expressing TMEM16A alone, 100 μM for Nter13, S38G and rat peptides
T1 construct: expressed in transfected cells; host or cells: HEK293T
T1 sequence (Q8BHY3 1-960): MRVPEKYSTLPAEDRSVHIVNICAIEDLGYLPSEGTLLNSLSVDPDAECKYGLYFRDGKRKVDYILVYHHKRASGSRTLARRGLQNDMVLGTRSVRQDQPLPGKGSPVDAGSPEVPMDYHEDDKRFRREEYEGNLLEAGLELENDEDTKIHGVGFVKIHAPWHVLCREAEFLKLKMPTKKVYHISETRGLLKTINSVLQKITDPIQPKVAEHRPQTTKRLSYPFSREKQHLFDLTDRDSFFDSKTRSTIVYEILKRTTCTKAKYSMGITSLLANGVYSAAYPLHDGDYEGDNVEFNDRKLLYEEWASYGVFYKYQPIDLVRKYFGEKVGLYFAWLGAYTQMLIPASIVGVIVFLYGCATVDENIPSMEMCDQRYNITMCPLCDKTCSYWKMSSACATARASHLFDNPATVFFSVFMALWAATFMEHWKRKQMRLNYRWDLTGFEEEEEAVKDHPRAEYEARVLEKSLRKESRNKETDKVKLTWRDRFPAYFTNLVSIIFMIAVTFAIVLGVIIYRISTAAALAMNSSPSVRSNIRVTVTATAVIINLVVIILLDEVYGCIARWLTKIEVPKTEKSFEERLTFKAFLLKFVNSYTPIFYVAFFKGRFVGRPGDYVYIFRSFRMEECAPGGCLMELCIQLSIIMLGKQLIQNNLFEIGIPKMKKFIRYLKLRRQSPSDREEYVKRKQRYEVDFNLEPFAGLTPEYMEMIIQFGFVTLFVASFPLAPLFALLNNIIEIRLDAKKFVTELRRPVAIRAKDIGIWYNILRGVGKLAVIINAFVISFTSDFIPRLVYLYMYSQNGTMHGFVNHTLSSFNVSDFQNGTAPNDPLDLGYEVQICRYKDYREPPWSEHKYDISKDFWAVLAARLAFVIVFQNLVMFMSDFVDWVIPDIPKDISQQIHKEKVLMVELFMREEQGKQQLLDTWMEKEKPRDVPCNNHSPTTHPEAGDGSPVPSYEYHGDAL
Protocol: (§1) mTMEM16A (kindly provided by Dr Lily Yeh Jan) and hKCNE1 cDNA were subcloned in pIRES2eGFP, pXOOM, pcDNA3.1, pCDNA3.1-GFP and pCMV-HA vectors. Truncations and mutations on KCNE1 were generated by PCR. For SiMPull experiments, HA-tags were fused to the N-terminus of sequences, whereas GFP-tags were fused to C-terminal part. HEK293T and PCT cells were transiently co-transfected using Lipofectamine 2000 or the calcium phosphate method with a total amount of 1 and 3.5 μg of DNA, respectively, and seeded on 18 mm diameter coverslips. HEK cells were maintained in DMEM with 5% FBS on poly-L-lysine-coated glass coverslips in 12 well plates. PCT cells from wild type and knock-out mice were microdissected as described previously and maintained in F12 (Gibco) on collagen-coated glass coverslips.
(§2) HEK293T and PCT cell electrophysiology was performed 24-48 h after transfection. For whole-cell patch-clamp experiments cells were recorded in a bath solution containing (in mM) 150 NaCl, 5 KCl, 2 CaCl2 and 10 HEPES, pH 7.4 and 0.05% BSA. The glass pipettes (2-5 MΩ of resistance) were filled with (in mM) 5 NaCl, 135 CsCl, 2 MgCl2, 5 EGTA, 10 HEPES, pH 7.3. Cells were recorded either after incubation of 30 min with the peptide or during perfusion with the peptide. Total calcium concentration was calculated with Maxchelator (maxchelator.standford.edu) for a temperature of 20° C. HEK293T and PCT cells were recorded at room temperature in voltage-clamp mode using an Axopatch 200A (Molecular Devices) amplifier. Signals were filtered at 10 kHz and digitalized at 20 kHz. Whole-cell currents were elicited by voltage-ramps (from −100 to +100 mV, 1 s) and I-V stimulation pulses (from −100 to +100 mV in 20 mV increments, 1 s each pulse), holding the cells at −80 mV. Current densities were measured at +100 mV. Cell recordings, data acquisition and analysis of electrophysiology experiments were performed using pClamp software (Molecular Devices).

TMEM16A [3] = molecular target: T2, TMEM16A (Mus musculus, UniProt Q8BHY3); assay: Whole-cell patch-clamp of voltage-dependent Cl- current in proximal convoluted tubule (PCT) cells; format: cell-based; conditions: for Cl- current density after inhibitor: wild type PCT cells, untreated wild type 18.07±1.21
T2 construct: endogenous in cells; host or cells: primary mouse kidney proximal convoluted tubule (PCT) cells
Protocol: as §1, §2
T2 sequence (P23299 whole entry partner, one chain of several): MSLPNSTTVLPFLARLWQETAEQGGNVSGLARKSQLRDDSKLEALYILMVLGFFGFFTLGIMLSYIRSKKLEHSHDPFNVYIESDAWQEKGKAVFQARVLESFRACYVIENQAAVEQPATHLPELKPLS

SK4 channel = molecular target: T3, SK4 channel (Homo sapiens, UniProt O15554); assay: Patch-clamp of HEK293T cells transfected with SK4 and KCNE1; format: cell-based; conditions: absence of calcium
T3 construct: expressed in transfected cells
Protocol: as §2

KCNQ1 = molecular target: T4, KCNQ1 (Homo sapiens, UniProt P51787); assay: Whole-cell patch-clamp of cells transfected with KCNQ1 and KCNE1 variants; format: cell-based; conditions: co-transfected with wild type KCNQ1, current densities at +40 mV
T4 construct: expressed in transfected cells

[4] = KCNE1 form co-expressed with TMEM16A in HEK293T cells

Molecule: N=C(N)NC(=O)c1nc(Cl)c(N)nc1N [Amiloride, amiloride, reference compound]
- effect on tearing rate compared with Vehicle ([1]; N13ter 10 mM, amiloride 1 mM, vehicle PBS): did not show a statistically significant effect
- eyes with increased tearing rate between 1 h to 3 h ([1]; amiloride 1 mM topical): 7 out of 14

Molecule: COc1ccccc1/C=N/NC(=O)COc1ccc(Cl)cc1C [Ani9, reference compound]
- inhibition of KCNE1-TMEM16A chloride current (TMEM16A [2]; Ani9 300 nM): inhibited
- effect of Ani9 on Nter13-induced TMEM16A current (TMEM16A [2]; Ani9 5 μM after Nter13 100 μM, HEK293T expressing TMEM16A alone): reversion
- Cl- current density after inhibitor (TMEM16A [3]; Ani9 5 μM): 2.88±0.38 pA/pF

Molecule: O=C(O)c1cccnc1Nc1cccc(C(F)(F)F)c1 [NFA, niflumic acid, reference compound]
- inhibition of KCNE1-TMEM16A chloride current (TMEM16A [2]; NFA 100 μM): inhibited
- Cl- current density after inhibitor (TMEM16A [3]; NFA 100 μM): 4.51±0.28 pA/pF

Molecule: CCc1c(C)nc(SCC(=O)Nc2nc(-c3ccc(OC)cc3)cs2)[nH]c1=O [T16Ainh-A01, reference compound]
- inhibition of KCNE1-TMEM16A chloride current (TMEM16A [2]; T16A(inh)A01 10 μM): inhibited
- Cl- current density after inhibitor (TMEM16A [3]; A01 10 μM): 5.52±0.72 pA/pF

Molecule: KCNE1: human KCNE1 protein of 129 amino acids (NP_000210.2), expressed from cDNA
- reversal potential (TMEM16A [2]; KCNE1 co-expressed with TMEM16A in HEK293T cells): −4.8±1.3 mV
- current density at +100 mV (TMEM16A [2]; [4]): 18.1±2.8 pA/pF
- current density at +100 mV (TMEM16A [2]; TMEM16A co-expressed with KCNE1, 1 mM BAPTA): 21.98±5.32 pA/pF
- effect of KCNE1 overexpression on SK4 current (SK4 channel): did not induce any increase
- voltage-dependent Cl- current density after rescue (TMEM16A [3]; kcne1−/− PCT cells transfected with KCNE1 cDNA, KO 5.37±0.56): 21.59±1.38 pA/pF

Molecule: LLAKRGRDSGPSR (SEQ ID NO: 7) (Synthetic scramble peptide) [scrambled control peptide, reference compound]
- effect of peptide application on TMEM16A current (TMEM16A [2]): no effect
- tearing rate at 12 h ([1]; 10 mM topical, 5 μl per eye, n=20 eyes, basal 7.65±0.49 mm (N13ter), 8.10±0.54 mm (Scramble)): 6.45±0.34 mm
- effect on tearing rate ([1]; N13ter vs Scramble study, both 10 mM topical): sustained small decrease

Molecule: S38G: KCNE1 S38G polymorphism variant (full protein, not the hS38G peptide)
- current density at +100 mV (TMEM16A [2]; [4]): 6.96±0.78 pA/pF
- effect of KCNE1 polymorphism on KCNQ1 regulation (KCNQ1): do not impair the KCNQ1 regulation

Molecule: T7I: KCNE1 disease mutation T7I, not in the regulating domain, control
- current density at +100 mV (TMEM16A [2]; [4]): 24.69±1.57 pA/pF

Molecule: hS38G: hS38G peptide (SEQ ID NO: 5), N13 presenting S38G polymorphism (LARRSPRGGDGKL; hN13 S38G) [reference compound]
- effect of peptide application on TMEM16A current (TMEM16A [2]): no effect

Molecule: rN13: rat N13 peptide (SEQ ID NO: 6) (LARRSQLRDDSKL; amino acid residues between positions 30 to 42 of the rat KCNE1 protein sequence)
- effect of peptide application on TMEM16A current (TMEM16A [2]): only a small effect
